# In PubChem BioAssay AID1963447 (Molecular Pharmacology Branch, DTP, NCI, 2024):
# Several values for one entry are separate records, joined by “and”; a condition that tells them apart may be missing. Equal entries are not always repeated.
# Tested on: 885512-296-R-J2-PDC complex spheroid growth, % test/control
# Assay: Anticancer human tumor 885512-296-R-J2-PDC patient-derived breast carcinoma cell line growth inhibition [Asc]
# Conditions: for viability, T/C: stronger effect = lower value
# Summary of the method: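 Tumor cells were grown as multicellular spheroids with stromal HUVEC and mesenchymal stem cells and treated singly or in combination. Concentrations fell in half-log steps from the clinical Cmax, or from 10 microM where none was known.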
# 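Further: spheroids exposed to compounds for seven days.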
# 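Wherever viability, T/C is given: 100% = DMSO vehicle control wells.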
compound,measurement,setting,value
CCN1C(C(=O)NC23CCC(C(=O)O)(CC2)CC3)C(c2cccc(Cl)c2F)C2(C(=O)Nc3cc(Cl)ccc32)C12CCCCC2 (configuration not stated) + CNC(C)C(=O)NC1CN(S(=O)(=O)c2cccc(S(=O)(=O)N3CCC4CCC(C(=O)NC(c5ccccc5)c5ccccc5)N4C(=O)C(NC(=O)C(C)NC)C3)c2)CCC2CCC(C(=O)NC(c3ccccc3)c3ccccc3)N2C1=O,IC50,"curve of first compound, second compound 0.01 µM",> 3 µM
same,IC50,"curve of first compound, second compound 0.0316 µM",2.97 µM
same,IC50,"curve of first compound, second compound 0.1 µM",> 3 µM
same,IC50,"curve of first compound, second compound 0.316 µM",> 3 µM
same,IC50,"curve of first compound, second compound 1 µM",> 3 µM
same,"viability, T/C","second compound 0.01 µM, first compound 0.00949 µM",85.2%
same,"viability, T/C","second compound 0.01 µM, first compound 0.03 µM",77.7%
same,"viability, T/C","second compound 0.01 µM, first compound 0.0949 µM",87%
same,"viability, T/C","second compound 0.01 µM, first compound 0.3 µM",84%
same,"viability, T/C","second compound 0.01 µM, first compound 0.949 µM",67%
same,"viability, T/C","second compound 0.01 µM, first compound 3 µM",53.5%
same,"viability, T/C","second compound 0.0316 µM, first compound 0.00949 µM",103%
same,"viability, T/C","second compound 0.0316 µM, first compound 0.03 µM",98.3%
same,"viability, T/C","second compound 0.0316 µM, first compound 0.0949 µM",88.7%
same,"viability, T/C","second compound 0.0316 µM, first compound 0.3 µM",97.2%
same,"viability, T/C","second compound 0.0316 µM, first compound 0.949 µM",84.7%
same,"viability, T/C","second compound 0.0316 µM, first compound 3 µM",49.4%
same,"viability, T/C","second compound 0.1 µM, first compound 0.00949 µM",98.7%
same,"viability, T/C","second compound 0.1 µM, first compound 0.03 µM",107%
same,"viability, T/C","second compound 0.1 µM, first compound 0.0949 µM",108%
same,"viability, T/C","second compound 0.1 µM, first compound 0.3 µM",104%
same,"viability, T/C","second compound 0.1 µM, first compound 0.949 µM",77.2%
same,"viability, T/C","second compound 0.1 µM, first compound 3 µM",51.7%
same,"viability, T/C","second compound 0.316 µM, first compound 0.00949 µM",104%
same,"viability, T/C","second compound 0.316 µM, first compound 0.03 µM",103%
same,"viability, T/C","second compound 0.316 µM, first compound 0.0949 µM",111%
same,"viability, T/C","second compound 0.316 µM, first compound 0.3 µM",97.9%
same,"viability, T/C","second compound 0.316 µM, first compound 0.949 µM",86%
same,"viability, T/C","second compound 0.316 µM, first compound 3 µM",57.8%
same,"viability, T/C","second compound 1 µM, first compound 0.00949 µM",104%
same,"viability, T/C","second compound 1 µM, first compound 0.03 µM",118%
same,"viability, T/C","second compound 1 µM, first compound 0.0949 µM",111%
same,"viability, T/C","second compound 1 µM, first compound 0.3 µM",101%
same,"viability, T/C","second compound 1 µM, first compound 0.949 µM",90%
same,"viability, T/C","second compound 1 µM, first compound 3 µM",60.3%
Cc1nc(N2CCC3(CC2)COC(C)C3N)c(CO)nc1Sc1ccnc(N)c1Cl (configuration not stated),"viability, T/C",compound 0.00949 µM,82.5% and 83.1% and 76%
same,"viability, T/C",compound 0.03 µM,68.2% and 68.5% and 70.9%
same,"viability, T/C",compound 0.0949 µM,59.3% and 59.5% and 63.1%
same,"viability, T/C",compound 0.3 µM,54.2% and 53% and 54%
same,"viability, T/C",compound 0.949 µM,45.2% and 48% and 39.2%
same,"viability, T/C",compound 3 µM,36.6% and 38.9% and 36.2%
same,IC50,curve of compound,0.408 µM and 0.453 µM and 0.373 µM
